Reference: patent US12102089B2, “Method for inactivating mold spores” (DSM IP ASSETS B.V., priority 2017, dated 2024)

Experiments:
[1] = tested on: in-house strain of Aspergillus niger; test: Heat treatment of in-house Aspergillus niger spores in ice tea with natamycin, visual growth; format: cell-based; design: key to growth or no growth: growth (+); no growth (−)
Method: Commercially available ice tea (Lipton, peach flavor, non-carbonated, 1.5 L) was adjusted to high water hardness by adding 1 ml of a solution of 39 g CaCl2 and 27 g MgCl2 added to 934 g water. ⅓ of this ice tea preparation (the pH of which was 3.15) was left as-such, ⅓ of the preparation was enriched with 5 ppm natamycin and ⅓ of the preparation was enriched with 10 ppm natamycin. Samples of 5 ml were made from each preparation in 15 ml sterile plastic tubes. Of each preparation 8 samples were pre-heated to the desired pasteurization temperature using a water bath. Temperatures used were RT, 60, 65, 70, 75, 80, 85 and 90° C. When the desired temperature was reached, 100 μl of a 2500 spores/ml spore suspension of Aspergillus niger ATCC 9029AA was added to each tube. Subsequently, the samples were kept for 30 seconds at the temperature in question in the water bath. Next, the samples were cooled on ice to a temperature of 25° C. Samples were incubated at 25° C. and visually examined for growth (formation of mold flakes or turbidity) for two months. Additionally, samples were enumerated according to ISO protocol 21527-1.2008 on day 0 (before heat treatment) and day 1 (after heat treatment) to count immediate loss of viability. […] For the results, see Table 1. […] For comparative reasons, Example 1 was repeated with an in-house strain of Aspergillus niger. […] For the results, see Table 2.

[2] = LC-MS/MS analysis of natamycin and mycosamine in heated ice tea sample; format: physicochemical; conditions: 10 ppm natamycin at t=0, heated at 70° C.
Method: For the analysis of mycosamine at low concentrations (ppb level) a sample preparation is used with a cation exchange SPE material to isolate mycosamine from the sample matrix and/or remove possible interfering impurities therefrom. The analysis was performed on LC-MS/MS on a ZIC-HILIC column. For the identification and (semi) quantification a reference of mycosamine was prepared. The concentration of mycosamine in this reference was determined with ^1H-NMR.

SMILES: C[C@@H]1C/C=C/C=C/C=C/C=C/[C@H](O[C@@H]2O[C@H](C)[C@@H](O)[C@H](N)[C@@H]2O)C[C@@H]2O[C@](O)(C[C@@H](O)C[C@H]3O[C@@H]3/C=C/C(=O)O1)C[C@H](O)[C@H]2C(=O)O [natamycin]
- growth or no growth ([1]; 60°C, 5 ppm, day 1): −
- growth or no growth ([1]; 60°C, 5 ppm, day 2): −
- growth or no growth ([1]; 60°C, 5 ppm, day 3): −
- growth or no growth ([1]; 60°C, 5 ppm, day 4): −
- growth or no growth ([1]; 60°C, 5 ppm, day 5): −
- growth or no growth ([1]; 60°C, 5 ppm, day 6): −
- growth or no growth ([1]; 60°C, 5 ppm, day 7): +
- growth or no growth ([1]; 60°C, 5 ppm, day 8): +
- growth or no growth ([1]; 60°C, 5 ppm, day 9): +
- growth or no growth ([1]; 60°C, 5 ppm, day 10): +
- growth or no growth ([1]; 60°C, 5 ppm, day 11): +
- growth or no growth ([1]; 60°C, 5 ppm, day 12): +
- growth or no growth ([1]; 60°C, 5 ppm, day 13): +
- growth or no growth ([1]; 60°C, 5 ppm, day 14): +
- growth or no growth ([1]; 60°C, 10 ppm, day 1): −
- growth or no growth ([1]; 60°C, 10 ppm, day 2): −
- growth or no growth ([1]; 60°C, 10 ppm, day 3): −
- growth or no growth ([1]; 60°C, 10 ppm, day 4): −
- growth or no growth ([1]; 60°C, 10 ppm, day 5): −
- growth or no growth ([1]; 60°C, 10 ppm, day 6): −
- growth or no growth ([1]; 60°C, 10 ppm, day 7): −
- growth or no growth ([1]; 60°C, 10 ppm, day 8): −
- growth or no growth ([1]; 60°C, 10 ppm, day 9): −
- growth or no growth ([1]; 60°C, 10 ppm, day 10): −
- growth or no growth ([1]; 60°C, 10 ppm, day 11): +
- growth or no growth ([1]; 60°C, 10 ppm, day 12): +
- growth or no growth ([1]; 60°C, 10 ppm, day 13): +
- growth or no growth ([1]; 60°C, 10 ppm, day 14): +
- germination ([1]; 65° C., 70° C. and 80° C., in the presence of natamycin): no germination occurred
- growth or no growth ([1]; 65°C, 5 ppm, day 1): −
- growth or no growth ([1]; 65°C, 5 ppm, day 2): −
- growth or no growth ([1]; 65°C, 5 ppm, day 3): −
- growth or no growth ([1]; 65°C, 5 ppm, day 4): −
- growth or no growth ([1]; 65°C, 5 ppm, day 5): −
- growth or no growth ([1]; 65°C, 5 ppm, day 6): −
- growth or no growth ([1]; 65°C, 5 ppm, day 7): −
- growth or no growth ([1]; 65°C, 5 ppm, day 8): −
- growth or no growth ([1]; 65°C, 5 ppm, day 9): −
- growth or no growth ([1]; 65°C, 5 ppm, day 10): −
- growth or no growth ([1]; 65°C, 5 ppm, day 11): −
- growth or no growth ([1]; 65°C, 5 ppm, day 12): −
- growth or no growth ([1]; 65°C, 5 ppm, day 13): −
- growth or no growth ([1]; 65°C, 5 ppm, day 14): −
- growth or no growth ([1]; 65°C, 10 ppm, day 1): −
- growth or no growth ([1]; 65°C, 10 ppm, day 2): −
- growth or no growth ([1]; 65°C, 10 ppm, day 3): −
- growth or no growth ([1]; 65°C, 10 ppm, day 4): −
- growth or no growth ([1]; 65°C, 10 ppm, day 5): −
- growth or no growth ([1]; 65°C, 10 ppm, day 6): −
- growth or no growth ([1]; 65°C, 10 ppm, day 7): −
- growth or no growth ([1]; 65°C, 10 ppm, day 8): −
- growth or no growth ([1]; 65°C, 10 ppm, day 9): −
- growth or no growth ([1]; 65°C, 10 ppm, day 10): −
- growth or no growth ([1]; 65°C, 10 ppm, day 11): −
- growth or no growth ([1]; 65°C, 10 ppm, day 12): −
- growth or no growth ([1]; 65°C, 10 ppm, day 13): −
- growth or no growth ([1]; 65°C, 10 ppm, day 14): −
- growth or no growth ([1]; 70°C, 5 ppm, day 1): −
- growth or no growth ([1]; 70°C, 5 ppm, day 2): −
- growth or no growth ([1]; 70°C, 5 ppm, day 3): −
- growth or no growth ([1]; 70°C, 5 ppm, day 4): −
- growth or no growth ([1]; 70°C, 5 ppm, day 5): −
- growth or no growth ([1]; 70°C, 5 ppm, day 6): −
- growth or no growth ([1]; 70°C, 5 ppm, day 7): −
- growth or no growth ([1]; 70°C, 5 ppm, day 8): −
- growth or no growth ([1]; 70°C, 5 ppm, day 9): −
- growth or no growth ([1]; 70°C, 5 ppm, day 10): −
- growth or no growth ([1]; 70°C, 5 ppm, day 11): −
- growth or no growth ([1]; 70°C, 5 ppm, day 12): −
- growth or no growth ([1]; 70°C, 5 ppm, day 13): −
- growth or no growth ([1]; 70°C, 5 ppm, day 14): −
- growth or no growth ([1]; 70°C, 10 ppm, day 1): −
- growth or no growth ([1]; 70°C, 10 ppm, day 2): −
- growth or no growth ([1]; 70°C, 10 ppm, day 3): −
- growth or no growth ([1]; 70°C, 10 ppm, day 4): −
- growth or no growth ([1]; 70°C, 10 ppm, day 5): −
- growth or no growth ([1]; 70°C, 10 ppm, day 6): −
- growth or no growth ([1]; 70°C, 10 ppm, day 7): −
- growth or no growth ([1]; 70°C, 10 ppm, day 8): −
- growth or no growth ([1]; 70°C, 10 ppm, day 9): −
- growth or no growth ([1]; 70°C, 10 ppm, day 10): −
- growth or no growth ([1]; 70°C, 10 ppm, day 11): −
- growth or no growth ([1]; 70°C, 10 ppm, day 12): −
- growth or no growth ([1]; 70°C, 10 ppm, day 13): −
- growth or no growth ([1]; 70°C, 10 ppm, day 14): −
- growth or no growth ([1]; 75°C, 5 ppm, day 1): −
- growth or no growth ([1]; 75°C, 5 ppm, day 2): −
- growth or no growth ([1]; 75°C, 5 ppm, day 3): −
- growth or no growth ([1]; 75°C, 5 ppm, day 4): −
- growth or no growth ([1]; 75°C, 5 ppm, day 5): −
- growth or no growth ([1]; 75°C, 5 ppm, day 6): −
- growth or no growth ([1]; 75°C, 5 ppm, day 7): −
- growth or no growth ([1]; 75°C, 5 ppm, day 8): −
- growth or no growth ([1]; 75°C, 5 ppm, day 9): −
- growth or no growth ([1]; 75°C, 5 ppm, day 10): −
- growth or no growth ([1]; 75°C, 5 ppm, day 11): −
- growth or no growth ([1]; 75°C, 5 ppm, day 12): −
- growth or no growth ([1]; 75°C, 5 ppm, day 13): −
- growth or no growth ([1]; 75°C, 5 ppm, day 14): −
- growth or no growth ([1]; 75°C, 10 ppm, day 9): −
- growth or no growth ([1]; 75°C, 10 ppm, day 10): −
- germination ([1]; RT and 60° C., 5 ppm natamycin): delayed germination
- germination ([1]; RT and 60° C., 10 ppm natamycin): longer delay
- natamycin found in sample ([2]; Example 1 ice tea sample (pH 3.15)): < 0.04 mg/L
- natamycin found in sample ([2]; Example 2 ice tea sample): < 0.04 mg/L
- natamycin found in sample ([2]; Example 3 ice tea sample): < 0.04 mg/L
